# Reference: article PMC9775191, “A Subset Screen of the Compounds Australia Scaffold Library Identifies 7-Acylaminodibenzoxazepinones as Potent and Selective Hits for Anti-Giardia Drug Discovery” (Biomedicines, 2022)
# Test system: G. duodenalis BRIS/91/HEPU/1279
# Test: Primary Giardia screen at 10 µM (live-cell imaging, automated counting)
# Type: cell-based, Giardia duodenalis
# Settings: 24 h
# Method: Each compound was assessed in singlicate, at a final concentration of 10 μM (0.4 μL of a 5 mM stock; diluted to a final volume of 200 μL in culture medium; 0.2% DMSO). […] Plates were incubated in sealed chambers filled with 3% O2, 5% CO2 in N2 and growth was assessed at 24 and 48 h using live cell imaging and automated counting as previously described. Growth inhibition was calculated by subtracting media only background counts and determining percentage growth relative to vehicle (0.2% DMSO) controls. The reliability of these assays was assessed by calculating Z’ factors for each plate as previously described.
row,Compound,Average % Inhibition 24h
1,FC(F)Oc1ccc(-c2csc(Cc3nnc4n3CCCCC4)n2)cc1 [SN00776417],12.3%
2,Cc1c(C(=O)Nc2cc(-c3ccncc3)n[nH]2)cccc1[N+](=O)[O-] [SN00776775],6.4%
3,CC(=O)Nc1cc(NC(=O)c2cc(-c3ccccc3)nc3c2cnn3Cc2cccnc2)ccc1F [SN00776945],0.0%
4,CCOC(=O)c1sc2ncnc(Nc3cn[nH]c3)c2c1C [SN00777183],0.0%
5,CCN(CC)S(=O)(=O)c1ccc(Nc2ccn(CCc3ccccn3)n2)c([N+](=O)[O-])c1 [SN00777378],10.7%
6,COc1cccc(N2CCN(C(=O)c3ccc4noc(-c5ccccc5)c4c3)CC2)c1 [SN00777397],9.9%
7,Cn1cccc1C1CCCCCN1C(=O)CCSCc1nc2sc3c(c2c(=O)[nH]1)CCC3 (stereo not drawn) [SN00778065],0.2%
8,Cc1ccc(-c2nnn(CC(=O)N3CCCCCC3c3cccn3C)n2)cc1 (stereo not drawn) [SN00778086],2.1%
9,Cc1nn(CCC(=O)Nc2cccc(F)c2)c(=O)c2noc(C)c12 [SN00778869],0.0%

# Same assay, conditions: 24 h, first singlicate assay
row,Compound,% Inhibition n=1 24h
1,FC(F)Oc1ccc(-c2csc(Cc3nnc4n3CCCCC4)n2)cc1 [SN00776417],22.0%
2,Cc1c(C(=O)Nc2cc(-c3ccncc3)n[nH]2)cccc1[N+](=O)[O-] [SN00776775],12.8%
3,CC(=O)Nc1cc(NC(=O)c2cc(-c3ccccc3)nc3c2cnn3Cc2cccnc2)ccc1F [SN00776945],0.0%
4,CCOC(=O)c1sc2ncnc(Nc3cn[nH]c3)c2c1C [SN00777183],0.1%
5,CCN(CC)S(=O)(=O)c1ccc(Nc2ccn(CCc3ccccn3)n2)c([N+](=O)[O-])c1 [SN00777378],21.3%
6,COc1cccc(N2CCN(C(=O)c3ccc4noc(-c5ccccc5)c4c3)CC2)c1 [SN00777397],17.2%
7,Cn1cccc1C1CCCCCN1C(=O)CCSCc1nc2sc3c(c2c(=O)[nH]1)CCC3 (stereo not drawn) [SN00778065],0.0%
8,Cc1ccc(-c2nnn(CC(=O)N3CCCCCC3c3cccn3C)n2)cc1 (stereo not drawn) [SN00778086],0.0%
9,Cc1nn(CCC(=O)Nc2cccc(F)c2)c(=O)c2noc(C)c12 [SN00778869],0.0%

# Same assay, conditions: 24 h, re-assessment
row,Compound,% Inhibition n=2 24h
1,FC(F)Oc1ccc(-c2csc(Cc3nnc4n3CCCCC4)n2)cc1 [SN00776417],2.6%
2,Cc1c(C(=O)Nc2cc(-c3ccncc3)n[nH]2)cccc1[N+](=O)[O-] [SN00776775],0.0%
3,CC(=O)Nc1cc(NC(=O)c2cc(-c3ccccc3)nc3c2cnn3Cc2cccnc2)ccc1F [SN00776945],0.0%
4,CCOC(=O)c1sc2ncnc(Nc3cn[nH]c3)c2c1C [SN00777183],0.0%
5,CCN(CC)S(=O)(=O)c1ccc(Nc2ccn(CCc3ccccn3)n2)c([N+](=O)[O-])c1 [SN00777378],0.0%
6,COc1cccc(N2CCN(C(=O)c3ccc4noc(-c5ccccc5)c4c3)CC2)c1 [SN00777397],2.5%
7,Cn1cccc1C1CCCCCN1C(=O)CCSCc1nc2sc3c(c2c(=O)[nH]1)CCC3 (stereo not drawn) [SN00778065],0.4%
8,Cc1ccc(-c2nnn(CC(=O)N3CCCCCC3c3cccn3C)n2)cc1 (stereo not drawn) [SN00778086],4.1%
9,Cc1nn(CCC(=O)Nc2cccc(F)c2)c(=O)c2noc(C)c12 [SN00778869],0.0%

# Same assay, conditions: 48 h
row,Compound,Average % Inhibition 48h
1,FC(F)Oc1ccc(-c2csc(Cc3nnc4n3CCCCC4)n2)cc1 [SN00776417],19.6%
2,Cc1c(C(=O)Nc2cc(-c3ccncc3)n[nH]2)cccc1[N+](=O)[O-] [SN00776775],21.4%
3,CC(=O)Nc1cc(NC(=O)c2cc(-c3ccccc3)nc3c2cnn3Cc2cccnc2)ccc1F [SN00776945],25.1%
4,CCOC(=O)c1sc2ncnc(Nc3cn[nH]c3)c2c1C [SN00777183],30.8%
5,CCN(CC)S(=O)(=O)c1ccc(Nc2ccn(CCc3ccccn3)n2)c([N+](=O)[O-])c1 [SN00777378],25.2%
6,COc1cccc(N2CCN(C(=O)c3ccc4noc(-c5ccccc5)c4c3)CC2)c1 [SN00777397],28.2%
7,Cn1cccc1C1CCCCCN1C(=O)CCSCc1nc2sc3c(c2c(=O)[nH]1)CCC3 (stereo not drawn) [SN00778065],38.7%
8,Cc1ccc(-c2nnn(CC(=O)N3CCCCCC3c3cccn3C)n2)cc1 (stereo not drawn) [SN00778086],28.3%
9,Cc1nn(CCC(=O)Nc2cccc(F)c2)c(=O)c2noc(C)c12 [SN00778869],40.9%

# Same assay, conditions: 48 h, first singlicate assay
row,Compound,% Inhibition n=1 48h
1,CCn1c(C2NC(N)=Nc3nc4ccccc4n32)nc2ccccc21 (stereo not drawn) [SN00776112],5.4%
2,Cc1nc2sccn2c1-c1nc(-c2ccccc2)c(C(=O)c2ccc3c(c2)NC(=O)CO3)s1 [SN00776123],7.0%
3,Cc1nc2sccn2c1-c1nc(-c2cccc3ccccc23)cs1 [SN00776128],37.4%
4,CS(=O)(=O)c1ccc(-c2csc(-n3nccc3C(F)(F)F)n2)cc1 [SN00776135],7.7%
5,COc1ccc(-c2csc(-n3nccc3C(F)(F)F)n2)cc1OC [SN00776140],27.9%
6,Cc1cc(NC(=O)c2ccc([N+](=O)[O-])cc2)n(-c2nc3ccccc3[nH]2)n1 [SN00776157],6.0%
7,NC1=C(c2nc3ccccc3s2)CC(=O)N1C1CC1 [SN00776353],0.0%
8,Cc1sc(-n2cccc2)c(C(=O)NC2CCCCCC2)c1C [SN00776382],0.0%
9,CCc1nnc(NC(=O)c2ccsc2-n2c(C)ccc2C)s1 [SN00776389],11.7%
10,c1ccc(-c2cn3nc(-c4ccccc4)n4c3c2CCCC4)cc1 [SN00776412],0.0%
11,FC(F)Oc1ccc(-c2csc(Cc3nnc4n3CCCCC4)n2)cc1 [SN00776417],34.2%
12,CCN(c1ccc(-c2csc(Cc3nnc4n3CCCCC4)n2)cc1)S(C)(=O)=O [SN00776436],17.3%
13,O=C(C1=C(O)C(=O)N(CCN2CCOCC2)C1c1ccncc1)c1ccccc1 (stereo not drawn) [SN00776455],0.7%
14,CC1CN(c2nc3c(c(=O)[nH]c(=O)n3C)n2CC(=O)O)CC(C)O1 (stereo not drawn) [SN00776554],4.6%
15,O=C(Nc1ccc2c(c1)OCO2)C1CCN(Cc2nnnn2-c2ccccc2)CC1 [SN00776590],4.9%
16,CCN(CC)CCN1C(=O)C(O)=C(C(=O)c2cccs2)C1c1ccc(C)o1 (stereo not drawn) [SN00776616],15.0%
17,CN(C)CCCN1C(=O)C(O)=C(C(=O)c2cc(Cl)ccc2O)C1c1ccco1 (stereo not drawn) [SN00776642],14.6%

row,Compound,% Inhibition n=1 48h
1,CCOC(=O)c1sc(N2C(=O)C(O)=C(C(=O)c3ccco3)C2c2ccc(OC)cc2)nc1C (stereo not drawn) [SN00776656],6.9%
2,Cc1c(C(=O)Nc2cc(-c3ccncc3)n[nH]2)cccc1[N+](=O)[O-] [SN00776775],37.2%
3,O=C(Nc1nnc(-c2ccccn2)[nH]1)C1CC(=O)N(CC(F)(F)F)C1 (stereo not drawn) [SN00776806],9.5%
4,Cn1c(=O)[nH]c(=O)c2c1nc(N1CCNCC1)n2Cc1ccc(Br)cc1 [SN00776836],0.0%
5,O=C(CCC(=O)N1CCCC1c1nc2ccccc2[nH]1)c1ccccc1 (stereo not drawn) [SN00776900],28.7%
6,CCCNC(=O)CCNC(=O)N1CCCC1c1nc2cc(C)ccc2[nH]1 (stereo not drawn) [SN00776915],37.1%
7,Cc1cccc(C)c1NC(=O)c1cc(-c2ccccc2)nc2c1cnn2Cc1cccnc1 [SN00776937],17.5%
8,CC(=O)Nc1cc(NC(=O)c2cc(-c3ccccc3)nc3c2cnn3Cc2cccnc2)ccc1F [SN00776945],50.1%
9,Cc1ccc(NC(=O)Cc2nc(-c3ccc4c(c3)CC(=O)N4C)cs2)cc1 [SN00777029],10.0%
10,CN1C(=O)Cc2cc(-c3csc(N=C(N)N)n3)ccc21 [SN00777034],0.0%
11,CCOC(=O)c1sc2ncnc(Nc3cn[nH]c3)c2c1C [SN00777183],42.7%
12,CCN(CC)S(=O)(=O)c1ccc(Nc2ccn(CCc3ccccn3)n2)c([N+](=O)[O-])c1 [SN00777378],39.2%
13,COc1cccc(N2CCN(C(=O)c3ccc4noc(-c5ccccc5)c4c3)CC2)c1 [SN00777397],56.5%
14,Cn1cccc1C1CCCCCN1C(=O)CCSCc1nc2sc3c(c2c(=O)[nH]1)CCC3 (stereo not drawn) [SN00778065],67.7%
15,Cc1ccc(-c2nnn(CC(=O)N3CCCCCC3c3cccn3C)n2)cc1 (stereo not drawn) [SN00778086],56.5%
16,Cc1nn(CCC(=O)Nc2cccc(F)c2)c(=O)c2noc(C)c12 [SN00778869],21.9%

# Same assay, conditions: 48 h, re-assessment
row,Compound,% Inhibition n=2 48h
1,FC(F)Oc1ccc(-c2csc(Cc3nnc4n3CCCCC4)n2)cc1 [SN00776417],5.0%
2,Cc1c(C(=O)Nc2cc(-c3ccncc3)n[nH]2)cccc1[N+](=O)[O-] [SN00776775],5.6%
3,CC(=O)Nc1cc(NC(=O)c2cc(-c3ccccc3)nc3c2cnn3Cc2cccnc2)ccc1F [SN00776945],0.0%
4,CCOC(=O)c1sc2ncnc(Nc3cn[nH]c3)c2c1C [SN00777183],18.9%
5,CCN(CC)S(=O)(=O)c1ccc(Nc2ccn(CCc3ccccn3)n2)c([N+](=O)[O-])c1 [SN00777378],11.3%
6,COc1cccc(N2CCN(C(=O)c3ccc4noc(-c5ccccc5)c4c3)CC2)c1 [SN00777397],0.0%
7,Cn1cccc1C1CCCCCN1C(=O)CCSCc1nc2sc3c(c2c(=O)[nH]1)CCC3 (stereo not drawn) [SN00778065],9.8%
8,Cc1ccc(-c2nnn(CC(=O)N3CCCCCC3c3cccn3C)n2)cc1 (stereo not drawn) [SN00778086],0.0%
9,Cc1nn(CCC(=O)Nc2cccc(F)c2)c(=O)c2noc(C)c12 [SN00778869],59.9%
